Here are results for 13 compounds from patent US11253516B2, “N2,N4-diphenylpyrimidine-2,4-diamine derivative, method for preparing same, and pharmaceutical composition containing same as active ingredient for prevention or treatment of cancer” (Korea Research Institute of Chemical Technology, priority 2017, dated 2022).

Experiment [1] concerns Ba/F3 EGFR del19/T790M/C797S cell line. The experiment in a line: CellTiter-Glo cell viability, Ba/F3 EGFR del19/T790M/C797S. The experiment is classed as cell-based. To be noted: CellTiter-Glo, 72 hours, read-out: Ba/F3 EGFR del19/T790M/C797S IC50. As for the experimental part: (§1) The measurement of an activity on wild-type and mutation Ba/F3 EGFR cell line of the compound of the present invention was experimented by utilizing the CellTiter-Glo system sold by Promega, as follow. The CellTiter-Glo assay is a method for measuring the ATP present in cells in cell culture conditions to determine the cell viability.
(§2) The analysis of an EGFR inhibitory ability effect of the compound was carried out in accordance with the analysis reaction recipe below.
(§3) After the reaction of 72 hours, the plate treated with the compound was allowed to stand for 30 minutes at ambient temperature, and then, was further treated with 100 μl of the reagent, and was shaked for 10 minutes at ambient temperature.

The target of a further experiment is EGFR del19/T790M (Homo sapiens (Human), UniProt P00533, DEL746-750/T790M). The experiment in a line: HTRF enzyme assay, EGFR del19/T790M. To be noted: recombinant enzyme. The experiment is classed as biochemical. The protocol: (§4) The measurement of an activity on wild-type and EGFR mutation enzyme of the compound of the present invention was experimented by utilizing the HTRF system sold by Cisbio, as follow.
Sequence of EGFR del19/T790M (P00533 other isoform, or with tags, fused parts or gaps T790M/del 1-668/del 746-750 limits assumed): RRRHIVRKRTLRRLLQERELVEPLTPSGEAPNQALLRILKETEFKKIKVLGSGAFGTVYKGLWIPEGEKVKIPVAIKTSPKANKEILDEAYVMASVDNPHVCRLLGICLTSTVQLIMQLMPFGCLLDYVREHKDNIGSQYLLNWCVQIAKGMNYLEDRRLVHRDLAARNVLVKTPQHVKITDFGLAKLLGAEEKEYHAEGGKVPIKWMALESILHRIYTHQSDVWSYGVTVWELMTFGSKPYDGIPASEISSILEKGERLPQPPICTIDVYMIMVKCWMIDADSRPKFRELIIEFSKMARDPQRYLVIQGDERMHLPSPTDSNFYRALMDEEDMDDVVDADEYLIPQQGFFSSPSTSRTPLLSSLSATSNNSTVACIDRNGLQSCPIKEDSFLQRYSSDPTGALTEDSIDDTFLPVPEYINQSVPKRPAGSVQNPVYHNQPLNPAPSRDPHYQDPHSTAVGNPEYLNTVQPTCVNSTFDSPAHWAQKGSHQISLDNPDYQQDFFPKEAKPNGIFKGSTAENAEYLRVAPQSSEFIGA
(§5) The composition of the assay buffer used in the activity measurement was 50 mM Tris-HCl pH 7.5, 100 mM NaCl, 7.5 mM MgCl2, 3 mM KCl, 0.01% Tween 20, 0.1% BSA, 1 mM DTT. The enzymatic reaction was carried out hereto by using the peptide substrate labeled with ATP of […] concentration and biotin of […] concentration. The analysis of an EGFR activity inhibitory effect of the compound was carried out in accordance with the analysis reaction recipe below.
(§6) Component 1: […] of EGFR wild-type or mutation enzyme
(§7) Component 2: […] of compound solution
(§8) Component 3: […] of peptide labeled with ATP and biotin
(§9) The enzymatic reaction was initiated by mixing Component 1 and Component 2 first, and then, adding component 3. After the reaction for 2 hours at 37° C., […] of a measurement solution consisting of streptavidin-XL665 provided by Cisbio and anti-phosphotyrosine antibody labeled with europium was added to the enzymatic reaction solution and reacted for 1 hour at ambient temperature. […] The measurement values measured at the seven concentrations of the compound were analyzed by using the Prism program (version 5.01, Graphpad Software, Inc.), and IC50 value of the compound was calculated, which is an inhibitory ability indicator.
(In general: TR-FRET usually uses a lanthanide donor and a delayed reading to cut background.)

A further experiment has as its target EGFR del19/T790M/C797S (Homo sapiens, UniProt P00533, C797S/DEL746-750/T790M). The experiment in a line: HTRF enzyme assay, EGFR del19/T790M/C797S. The experiment is classed as biochemical. The conditions noted are these: HTRF, recombinant enzyme; read-out: EGFR del19/T790M/C797S IC50. The protocol: as §4, §5, §6, §7, §8, §9
Experiment [2] concerns Ba/F3 EGFR del19/T790M cell line. In words: CellTiter-Glo cell viability, Ba/F3 EGFR del19/T790M. To be noted: CellTiter-Glo, 72 hours, read-out: Ba/F3 EGFR del19/T790M IC50. Type of experiment: cell-based. As for the experimental part: as §1, §2, §3
The test system of another experiment is Ba/F3 EGFR wt. cell line. In words: CellTiter-Glo cell viability, Ba/F3 EGFR wild-type. The experiment is classed as cell-based. The conditions noted are these: 72 hours. As for the experimental part: as §1, §2
(§10) After the reaction of 72 hours, the plate treated with the compound was allowed to stand for 30 minutes at ambient temperature, and then, was further treated with 100 μl of the reagent, and was shaked for 10 minutes at ambient temperature. […] The measurement values measured at the eight concentrations of the compound were analyzed by using the Prism program (version 5.01, Graphpad Software, Inc.), and IC50 value of the compound was calculated, which is an inhibitory ability indicator.

A further experiment concerns the target EGFR del19 (Homo sapiens (Human), UniProt P00533, DEL746-750). The experiment in a line: HTRF enzyme assay, EGFR del19. The experiment is classed as biochemical. The conditions noted are these: recombinant enzyme. As for the experimental part:
as §4, §5, §6, §7, §8, §9

The test system of experiment [3] is Ba/F3 EGFR del19 cell line. In words: CellTiter-Glo cell viability, Ba/F3 EGFR del19. To be noted: 72 hours. The experiment is classed as cell-based. The protocol: as §1, §2, §10
Another experiment deals with EGFR wt. (Homo sapiens (Human), UniProt P00533). The experiment in a line: HTRF enzyme assay, wild-type EGFR. Type of experiment: biochemical. The conditions noted are these: recombinant enzyme. The protocol: as §4, §5, §6, §7, §8, §9
Sequence of EGFR wt. (P00533 25-1210): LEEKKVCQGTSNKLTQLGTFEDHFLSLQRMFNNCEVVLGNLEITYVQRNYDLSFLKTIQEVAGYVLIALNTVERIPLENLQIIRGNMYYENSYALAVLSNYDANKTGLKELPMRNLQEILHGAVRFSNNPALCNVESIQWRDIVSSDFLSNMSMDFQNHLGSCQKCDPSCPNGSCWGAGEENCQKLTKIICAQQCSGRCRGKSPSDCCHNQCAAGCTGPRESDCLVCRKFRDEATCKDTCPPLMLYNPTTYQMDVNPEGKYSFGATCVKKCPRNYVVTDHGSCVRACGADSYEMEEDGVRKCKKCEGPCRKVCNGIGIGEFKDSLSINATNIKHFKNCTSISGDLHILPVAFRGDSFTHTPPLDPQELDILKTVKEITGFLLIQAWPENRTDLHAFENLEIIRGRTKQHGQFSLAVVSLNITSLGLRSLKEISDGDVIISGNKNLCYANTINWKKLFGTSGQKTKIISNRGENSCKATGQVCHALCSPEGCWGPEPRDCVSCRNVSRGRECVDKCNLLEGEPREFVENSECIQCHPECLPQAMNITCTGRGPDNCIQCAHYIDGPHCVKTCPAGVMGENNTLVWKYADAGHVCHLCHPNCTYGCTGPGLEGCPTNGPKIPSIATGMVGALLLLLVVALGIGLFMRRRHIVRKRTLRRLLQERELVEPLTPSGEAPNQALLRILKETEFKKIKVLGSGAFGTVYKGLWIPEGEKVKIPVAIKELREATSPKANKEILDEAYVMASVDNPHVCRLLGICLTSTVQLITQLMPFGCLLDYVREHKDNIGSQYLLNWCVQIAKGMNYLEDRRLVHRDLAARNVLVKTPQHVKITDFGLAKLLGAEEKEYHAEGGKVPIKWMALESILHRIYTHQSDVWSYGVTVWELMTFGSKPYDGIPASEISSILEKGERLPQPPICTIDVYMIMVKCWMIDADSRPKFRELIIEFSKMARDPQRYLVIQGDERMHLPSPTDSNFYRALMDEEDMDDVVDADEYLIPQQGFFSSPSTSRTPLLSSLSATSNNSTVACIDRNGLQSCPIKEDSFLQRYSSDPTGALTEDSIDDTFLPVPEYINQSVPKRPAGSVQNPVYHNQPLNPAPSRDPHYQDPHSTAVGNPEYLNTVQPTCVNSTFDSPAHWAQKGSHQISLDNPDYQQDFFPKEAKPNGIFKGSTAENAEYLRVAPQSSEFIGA

Sequence of EGFR del19/T790M/C797S (P00533 with tags, fused parts or gaps C797S/DEL746-750/T790M limits assumed): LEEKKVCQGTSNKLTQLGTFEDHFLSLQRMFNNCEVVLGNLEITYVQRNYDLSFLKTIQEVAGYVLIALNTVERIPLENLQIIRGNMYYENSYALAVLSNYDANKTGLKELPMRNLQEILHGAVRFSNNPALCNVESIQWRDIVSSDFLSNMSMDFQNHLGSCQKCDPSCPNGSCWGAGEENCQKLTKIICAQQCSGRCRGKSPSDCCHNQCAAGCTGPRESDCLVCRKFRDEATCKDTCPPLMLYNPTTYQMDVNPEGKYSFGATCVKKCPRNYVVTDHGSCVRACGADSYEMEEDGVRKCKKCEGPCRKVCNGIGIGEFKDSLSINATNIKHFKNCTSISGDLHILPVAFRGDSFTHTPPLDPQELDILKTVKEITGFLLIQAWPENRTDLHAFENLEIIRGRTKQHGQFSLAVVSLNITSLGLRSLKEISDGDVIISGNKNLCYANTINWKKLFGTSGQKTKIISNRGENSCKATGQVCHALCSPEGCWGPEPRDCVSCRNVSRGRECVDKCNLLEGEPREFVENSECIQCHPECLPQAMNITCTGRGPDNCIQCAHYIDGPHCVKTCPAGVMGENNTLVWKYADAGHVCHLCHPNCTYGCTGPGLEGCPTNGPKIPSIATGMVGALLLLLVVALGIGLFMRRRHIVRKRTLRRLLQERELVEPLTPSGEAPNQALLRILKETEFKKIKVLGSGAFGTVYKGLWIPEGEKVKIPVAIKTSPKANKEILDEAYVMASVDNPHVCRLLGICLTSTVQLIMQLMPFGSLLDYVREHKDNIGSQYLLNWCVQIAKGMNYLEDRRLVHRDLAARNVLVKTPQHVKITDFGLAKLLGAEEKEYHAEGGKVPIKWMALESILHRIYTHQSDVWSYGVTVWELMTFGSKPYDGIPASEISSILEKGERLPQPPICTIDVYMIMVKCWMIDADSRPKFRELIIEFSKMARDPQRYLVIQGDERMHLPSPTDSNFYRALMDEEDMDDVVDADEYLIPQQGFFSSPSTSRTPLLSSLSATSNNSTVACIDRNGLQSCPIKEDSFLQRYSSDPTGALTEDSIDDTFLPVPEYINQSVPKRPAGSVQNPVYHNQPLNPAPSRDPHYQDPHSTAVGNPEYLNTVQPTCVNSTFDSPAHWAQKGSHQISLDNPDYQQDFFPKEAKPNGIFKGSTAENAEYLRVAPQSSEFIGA
Sequence of EGFR del19 (P00533 other isoform, or with tags, fused parts or gaps del 1-668/del 746-750 limits assumed): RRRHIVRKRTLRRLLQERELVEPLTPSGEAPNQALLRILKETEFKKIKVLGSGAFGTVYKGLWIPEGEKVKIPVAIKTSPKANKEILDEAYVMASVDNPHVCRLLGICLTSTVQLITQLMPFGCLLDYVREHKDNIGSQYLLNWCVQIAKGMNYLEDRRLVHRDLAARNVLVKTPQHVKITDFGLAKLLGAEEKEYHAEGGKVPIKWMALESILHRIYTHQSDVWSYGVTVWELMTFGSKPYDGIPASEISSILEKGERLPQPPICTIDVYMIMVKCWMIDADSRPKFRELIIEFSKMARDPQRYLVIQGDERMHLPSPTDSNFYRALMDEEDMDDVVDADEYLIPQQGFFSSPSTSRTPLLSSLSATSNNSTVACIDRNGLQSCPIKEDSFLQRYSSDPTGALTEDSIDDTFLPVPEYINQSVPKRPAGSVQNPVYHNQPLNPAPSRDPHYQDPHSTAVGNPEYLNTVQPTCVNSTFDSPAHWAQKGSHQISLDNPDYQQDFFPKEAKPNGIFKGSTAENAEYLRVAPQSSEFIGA

Take `COc1cc(C2CCNCC2)ccc1Nc1ncc(C(F)(F)F)c(Nc2ccccc2NS(C)(=O)=O)n1` [Example 5, N-(2-((2-((2-methoxy-4-(piperidin-4-yl)phenyl)amino)-5-(trifluoromethyl)pyrimidin-4-yl)amino)phenyl)methanesulfonamide]: the IC50 in experiment [1] came out at 790 nM; at EGFR del19/T790M, 13 nM; on EGFR del19/T790M/C797S it was 14 nM; in experiment [2], 570 nM; in the experiment with Ba/F3 EGFR wt. cell line, 2400 nM; on EGFR del19, 33 nM. In addition, the IC50 in experiment [3] is 260 nM; at EGFR wt., 4300 nM.
Regarding `COc1cc(C2CCNCC2)ccc1Nc1ncc(Br)c(Nc2ccccc2NS(N)(=O)=O)n1` [Example 7, 4-(4-((5-bromo-4-((2-(sulfamoylamino)phenyl)amino)pyrimidin-2-yl)amino)-3-methoxyphenyl)piperidine], the IC50 in experiment [1] amounted to 3300 nM; on EGFR del19/T790M it was 38 nM; at EGFR del19/T790M/C797S, 2 nM; in experiment [2], 1600 nM; in the experiment with Ba/F3 EGFR wt. cell line it was 3400 nM; at EGFR del19, 79 nM. For the same compound, the IC50 in experiment [3] was 470 nM; on EGFR wt., over 10000 nM.
On to `COc1cc(C2CCNCC2)ccc1Nc1ncc(Cl)c(Nc2ccccc2NS(N)(=O)=O)n1` [Example 6, 4-(4-((5-chloro-4-((2-(sulfamoylamino)phenyl)amino)pyrimidin-2-yl)amino)-3-methoxyphenyl)piperidine], for which the IC50 was 5800 nM in experiment [1]; 10 nM on EGFR del19/T790M; 11 nM at EGFR del19/T790M/C797S; 9000 nM in experiment [2]; over 15000 nM with Ba/F3 EGFR wt. cell line; 26 nM at EGFR del19. In addition, the IC50 was 6400 nM in experiment [3] and 390 nM on EGFR wt..
Regarding `COc1cc(N2CCN(C3CCN(C)CC3)CC2)ccc1Nc1ncc(Cl)c(Nc2ccccc2NS(C)(=O)=O)n1` [Example 25, N-(2-((5-chloro-2-((2-methoxy-4-(4-(1-methylpiperidin-4-yl)piperazin-1-yl)phenyl)amino)pyrimidin-4-yl)amino)phenyl)methanesulfonamide], the IC50 in experiment [1] was 27 nM; at EGFR del19/T790M, 18 nM; on EGFR del19/T790M/C797S, 9 nM; in experiment [2], 780 nM; with Ba/F3 EGFR wt. cell line, 340 nM; on EGFR del19, 0.2 nM. Further, the figures for the IC50 (in experiment [3]; on EGFR wt.) were 210 nM and 300 nM, respectively.
On to `COc1cc(C2CCNCC2)ccc1Nc1ncc(Br)c(Nc2ccccc2NS(C)(=O)=O)n1` [Example 3, N-(2-((5-bromo-2-((2-methoxy-4-(piperidin-4-yl)phenyl)amino)pyrimidin-4-yl)amino)phenyl)methanesulfonamide], for which the IC50 is 1600 nM in experiment [1]; 5 nM on EGFR del19/T790M; 2 nM on EGFR del19/T790M/C797S; 1200 nM in experiment [2]; 4100 nM in the experiment with Ba/F3 EGFR wt. cell line; 18 nM on EGFR del19. The IC50 in experiment [3] is 1000 nM; on EGFR wt. it was 840 nM.
As for `COc1cc(C2CCN(C3CCN(CCO)CC3)CC2)ccc1Nc1ncc(Cl)c(Nc2ccccc2NS(C)(=O)=O)n1` [Example 14, N-(2-((5-chloro-2-((4-(1′-(2-hydroxyethyl)-[1,4′-bipiperidin]-4-yl)-2-methoxyphenyl)amino)pyrimidin-4-yl)amino)phenyl)methanesulfonamide], the IC50 in experiment [1] worked out at 110 nM; at EGFR del19/T790M it was 95 nM; at EGFR del19/T790M/C797S, 34 nM; in experiment [2] it was 540 nM; in the experiment with Ba/F3 EGFR wt. cell line it was 750 nM; on EGFR del19, 6 nM. Besides, the IC50 in experiment [3] is 500 nM; at EGFR wt., 1400 nM.
Take `COc1cc(C2CCNCC2)c(C)cc1Nc1ncc(Cl)c(Nc2ccccc2NS(C)(=O)=O)n1` [Example 2, N-(2-((5-chloro-2-((2-methoxy-5-methyl-4-(piperidin-4-yl)phenyl)amino)pyrimidin-4-yl)amino)phenyl)methanesulfonamide]: the IC50 in experiment [1] came out at 2400 nM; on EGFR del19/T790M, 12 nM; on EGFR del19/T790M/C797S it was 3 nM; in experiment [2], 1800 nM; in the experiment with Ba/F3 EGFR wt. cell line, 2800 nM; at EGFR del19, 12 nM. Besides, the IC50 was found to be 3800 nM in experiment [3] and 730 nM at EGFR wt..
Turning to `COc1cc(N2CCNCC2)ccc1Nc1ncc(Br)c(Nc2ccccc2NS(N)(=O)=O)n1` [Example 30, 4-(4-((5-bromo-4-((2-(sulfamoylamino)phenyl)amino)pyrimidin-2-yl)amino)-3-methoxyphenyl)piperazine], the IC50 in experiment [1] amounted to 2700 nM; on EGFR del19/T790M, 34 nM; at EGFR del19/T790M/C797S, 3 nM; in experiment [2] it was 850 nM; with Ba/F3 EGFR wt. cell line it was 5400 nM; at EGFR del19, 24 nM. For the same compound, the IC50 in experiment [3] turned out to be 680 nM; on EGFR wt. it was 1800 nM.
`COc1cc(N2CCN(C)CC2)ccc1Nc1ncc(Cl)c(Nc2ccccc2NS(C)(=O)=O)n1` [Example 28, N-(2-((5-chloro-2-((2-methoxy-4-(4-methylpiperazin-1-yl)phenyl)amino)pyrimidin-4-yl)amino)phenyl)methanesulfonamide]: the IC50 worked out at 1700 nM in experiment [1]; 27 nM at EGFR del19/T790M; 9 nM at EGFR del19/T790M/C797S; 690 nM in experiment [2]; 1400 nM with Ba/F3 EGFR wt. cell line; 0.9 nM at EGFR del19. The figures for the IC50 (in experiment [3]; on EGFR wt.) were 1400 nM and 640 nM, respectively.
In the case of `COc1cc(N2CCNCC2)ccc1Nc1ncc(Cl)c(Nc2ccccc2NS(N)(=O)=O)n1` [Example 29, 4-(4-((5-chloro-4-((2-(sulfamoylamino)phenyl)amino)pyrimidin-2-yl)amino)-3-methoxyphenyl)piperazine], the IC50 came out at 2900 nM in experiment [1]; 4 nM on EGFR del19/T790M; 7 nM at EGFR del19/T790M/C797S; 2100 nM in experiment [2]; 2800 nM in the experiment with Ba/F3 EGFR wt. cell line; 5 nM on EGFR del19. Moreover, the values for the IC50 (in experiment [3]; at EGFR wt.) were 1900 nM and 1200 nM, respectively.
Take `COc1cc(C2CCN(C3CCN(C(C)=O)CC3)CC2)ccc1Nc1ncc(Cl)c(Nc2ccccc2NS(C)(=O)=O)n1` [Example 18, N-(2-((2-((4-(1′-acetyl-[1,4′-bipiperidin]-4-yl)-2-methoxyphenyl)amino)-5-chloropyrimidin-4-yl)amino)phenyl)methanesulfonamide]: the IC50 in experiment [1] was determined as 2000 nM; on EGFR del19/T790M, 92 nM; on EGFR del19/T790M/C797S it was 30 nM; in experiment [2] it was 1400 nM; in the experiment with Ba/F3 EGFR wt. cell line, 4400 nM; on EGFR del19, 13 nM. Further, the IC50 in experiment [3] was 2700 nM; at EGFR wt., 970 nM.
Turning to `COc1cc(C2CCN(CCO)CC2)ccc1Nc1ncc(Cl)c(Nc2ccccc2NS(C)(=O)=O)n1` [Example 13, N-(2-((5-chloro-2-((4-(1-(2-hydroxyethyl)piperidin-4-yl)-2-methoxyphenyl)amino)pyrimidin-4-yl)amino)phenyl)methanesulfonamide], the IC50 turned out to be 1500 nM in experiment [1]; 250 nM on EGFR del19/T790M; 33 nM on EGFR del19/T790M/C797S; 650 nM in experiment [2]; 4400 nM in the experiment on Ba/F3 EGFR wt. cell line; 13 nM at EGFR del19. Further, the IC50 in experiment [3] amounted to 980 nM; on EGFR wt., 1900 nM.
As for `COc1cc(N2CCC(N3CCN(C(C)=O)CC3)CC2)ccc1Nc1ncc(Cl)c(Nc2ccccc2NS(C)(=O)=O)n1` [Example 19, N-(2-((2-((4-(4-(4-acetylpiperazin-1-yl)piperidin-1-yl)-2-methoxyphenyl)amino)-5-chloropyrimidin-4-yl)amino)phenyl)methanesulfonamide], the IC50 was determined as 970 nM in experiment [1]; 69 nM on EGFR del19/T790M; 42 nM on EGFR del19/T790M/C797S; 660 nM in experiment [2]; 3100 nM in the experiment with Ba/F3 EGFR wt. cell line; 0.7 nM on EGFR del19. For the same compound, the IC50 in experiment [3] came to 1100 nM; on EGFR wt., 700 nM.
